Experimental data taken from US11034650B2, “Compounds useful for treating a Mannheimia haemolytica or Histophilus somni infection” (Intervet Inc., priority 2016, dated 2021).
In brackets after ≈: the same amount, converted by molar mass.

Legend:
Type in all cases: cell-based
[1] = system: Mannheimia haemolytica MH 6357 (M7/2, reference strain, cattle infection strain); assay: MIC, broth-microdilution (CLSI VET01-A4), strain MH 6357; conditions: Mannheimia haemolytica strain MH 6357, broth-microdilution; unit assumed
Outline: (§1)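 Compounds were serially diluted twofold in microdilution trays. Growth was judged by eye, and the MIC was the lowest concentration showing no turbidity. Results were interpreted per CLSI VET01-S3.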

[2] = system: Pasteurella multocida PM 10775 (080130003051, BRD field isolate); assay: MIC, broth-microdilution (CLSI VET01-A4), strain PM 10775; conditions: Pasteurella multocida strain PM 10775, broth-microdilution; unit assumed
Outline: as §1

[3] = system: Pasteurella multocida PM 6267 (P 2225 (L386), reference strain, mouse infection strain); assay: MIC, broth-microdilution (CLSI VET01-A4), strain PM 6267; conditions: Pasteurella multocida strain PM 6267, broth-microdilution; unit assumed
Outline: as §1

[4] = system: Mannheimia haemolytica MH 6374 (ATCC 33396, reference strain); assay: MIC, broth-microdilution (CLSI VET01-A4), strain MH 6374; conditions: Mannheimia haemolytica strain MH 6374, broth-microdilution; unit assumed
Outline: as §1

[5] = system: Pasteurella multocida PM 12080 (IV102277-0093, BRD field isolate); assay: MIC, broth-microdilution (CLSI VET01-A4), strain PM 12080; conditions: Pasteurella multocida strain PM 12080, broth-microdilution; unit assumed
Outline: as §1

[6] = system: Pasteurella multocida PM 6391 (ATCC 43137, reference strain); assay: MIC, broth-microdilution (CLSI VET01-A4), strain PM 6391; conditions: Pasteurella multocida strain PM 6391, broth-microdilution; unit assumed
Outline: as §1

[7] = system: Mannheimia haemolytica MH 13093 (XB0472-6014.1, BRD field isolate); assay: MIC, broth-microdilution (CLSI VET01-A4), strain MH 13093; conditions: Mannheimia haemolytica strain MH 13093, broth-microdilution; unit assumed
Outline: as §1

[8] = system: Mannheimia haemolytica MH 10720 (154, BRD field isolate); assay: MIC, broth-microdilution (CLSI VET01-A4), strain MH 10720; conditions: Mannheimia haemolytica strain MH 10720, broth-microdilution; unit assumed
Outline: as §1

[9] = system: Mannheimia haemolytica MH 13065 (XB0446-6003.9, BRD field isolate); assay: MIC, broth-microdilution (CLSI VET01-A4), strain MH 13065; conditions: Mannheimia haemolytica strain MH 13065, broth-microdilution; unit assumed
Outline: as §1

[10] = system: Mannheimia haemolytica MH 12587 (1071, BRD field isolate, macrolide-resistance: erm+, E+); assay: MIC, broth-microdilution (CLSI VET01-A4), strain MH 12587; conditions: Mannheimia haemolytica strain MH 12587, broth-microdilution; unit assumed
Outline: as §1

Compound | MIC PM 10775 [2] [µg/mL] | MIC PM 6267 [3] [µg/mL] | MIC PM 12080 [5] [µg/mL] | MIC PM 6391 [6] [µg/mL] | MIC MH 6357 [1] [µg/mL] | MIC MH 6374 [4] [µg/mL] | MIC MH 13093 [7] [µg/mL] | MIC MH 10720 [8] [µg/mL] | MIC MH 13065 [9] [µg/mL] | MIC MH 12587 [10] [µg/mL]
CON=C(C)[C@H](NC(=O)c1ccc(C#Cc2ccc(CNCc3nccs3)cc2)cc1)C(=O)NO [Compound 395] | 0.2 (≈ 0.407 µM) | 3.1 (≈ 6.31 µM) | 0.2 (≈ 0.407 µM) | ≤ 0.1 | 0.4 (≈ 0.814 µM) | 0.8 (≈ 1.63 µM) | 0.8 (≈ 1.63 µM) | 0.4 (≈ 0.814 µM) | 0.8 (≈ 1.63 µM) | 0.2 (≈ 0.407 µM)
CC(C)[C@H](NC(=O)c1ccc(C#Cc2ccc(CNCc3cccs3)cc2)cc1)C(=O)NO [Compound 171] | ≤ 0.1 | ≤ 0.1 | ≤ 0.1 | 0.2 (≈ 0.433 µM) | 0.2 (≈ 0.433 µM) | 0.4 (≈ 0.867 µM) | 0.4 (≈ 0.867 µM) | ≤ 0.1 | 0.2 (≈ 0.433 µM) | 0.8 (≈ 1.73 µM)
COCCNCc1ccc(C#Cc2ccc(C(=O)N[C@H](C(=O)NO)C(C)(C)SC)cc2)cc1 [C.237] | ≤ 0.1 | 0.2 (≈ 0.426 µM) | 0.4 (≈ 0.852 µM) | 0.8 (≈ 1.7 µM) | 1.6 (≈ 3.41 µM) | 1.6 (≈ 3.41 µM) | 1.6 (≈ 3.41 µM) | 0.2 (≈ 0.426 µM) | 1.6 (≈ 3.41 µM) | 3.1 (≈ 6.6 µM)
CON=C(C)C(NC(=O)c1ccc(C#Cc2ccc(CNCc3ccncc3)cc2)cc1)C(=O)NO (centres unmarked) [Compound 415] | ≤ 0.1 | 1.6 (≈ 3.3 µM) | ≤ 0.1 | ≤ 0.1 | 0.4 (≈ 0.824 µM) | 0.8 (≈ 1.65 µM) | 0.4 (≈ 0.824 µM) | 0.4 (≈ 0.824 µM) | 0.4 (≈ 0.824 µM) | 0.2 (≈ 0.412 µM)
Cc1ccc(CNCc2ccc(C#Cc3ccc(C(=O)N[C@@H](CO)C(=O)NO)cc3)cc2)cc1 [Compound 161] | ≤ 0.1 | 0.2 (≈ 0.437 µM) | 0.2 (≈ 0.437 µM) | 0.8 (≈ 1.75 µM) | 1.6 (≈ 3.5 µM) | 1.6 (≈ 3.5 µM) | 6.3 (≈ 13.8 µM) | 0.8 (≈ 1.75 µM) | 3.1 (≈ 6.78 µM) | 6.3 (≈ 13.8 µM)
O=C(N[C@@H](CO)C(=O)NO)c1ccc(C#Cc2ccc(CNCc3ccco3)cc2)cc1 [Compound 159] | ≤ 0.1 | 0.2 (≈ 0.461 µM) | 0.4 (≈ 0.923 µM) | 0.8 (≈ 1.85 µM) | 1.6 (≈ 3.69 µM) | 1.6 (≈ 3.69 µM) | 3.1 (≈ 7.15 µM) | 0.4 (≈ 0.923 µM) | 3.1 (≈ 7.15 µM) | 3.1 (≈ 7.15 µM)

More lines, main results first:

MIC PM 10775 [2] [µg/mL] | MIC PM 6267 [3] [µg/mL] | MIC PM 12080 [5] [µg/mL] | MIC PM 6391 [6] [µg/mL] | Compound | MIC MH 6357 [1] [µg/mL] | MIC MH 6374 [4] [µg/mL] | MIC MH 13093 [7] [µg/mL] | MIC MH 10720 [8] [µg/mL] | MIC MH 13065 [9] [µg/mL] | MIC MH 12587 [10] [µg/mL]
≤ 0.1 | 0.4 (≈ 0.884 µM) | 0.2 (≈ 0.442 µM) | 0.4 (≈ 0.884 µM) | CSC(C)(C)[C@H](NC(=O)c1ccc(C#Cc2ccc(CNC3CC3)nc2)cc1)C(=O)NO [Compound 335] | 0.4 (≈ 0.884 µM) | 0.8 (≈ 1.77 µM) | 0.8 (≈ 1.77 µM) | ≤ 0.1 | 0.4 (≈ 0.884 µM) | 3.1 (≈ 6.85 µM)
≤ 0.1 | 0.8 (≈ 1.83 µM) | 1.6 (≈ 3.66 µM) | 3.1 (≈ 7.09 µM) | O=C(N[C@@H](CO)C(=O)NO)c1ccc(C#Cc2ccc(CNCC3CCCO3)cc2)cc1 (some centres unmarked) [Compound 162] | 6.3 (≈ 14.4 µM) | 12.5 (≈ 28.6 µM) | 12.5 (≈ 28.6 µM) | 3.1 (≈ 7.09 µM) | 12.5 (≈ 28.6 µM) | 12.5 (≈ 28.6 µM)
≤ 0.1 | 3.1 (≈ 6.42 µM) | 0.8 (≈ 1.66 µM) | 1.6 (≈ 3.32 µM) | COCCCNCc1ccc(C#Cc2ccc(C(=O)NC(C(=O)NO)C(C)(C)[N+](=O)[O-])cc2)cc1 (centres unmarked) [Compound 285] | 1.6 (≈ 3.32 µM) | 3.1 (≈ 6.42 µM) | 3.1 (≈ 6.42 µM) | ≤ 0.1 | 1.6 (≈ 3.32 µM) | 6.3 (≈ 13.1 µM)
≤ 0.1 | ≤ 0.1 | ≤ 0.1 | ≤ 0.1 | COc1ccc(CNCc2ccc(C#Cc3ccc(C(=O)N[C@H](C(=O)NO)C(C)(C)S(C)(=O)=O)cc3)cc2)cc1 [Compound 260] | 1.6 (≈ 2.84 µM) | 0.4 (≈ 0.71 µM) | 0.8 (≈ 1.42 µM) | ≤ 0.1 | 0.4 (≈ 0.71 µM) | 1.6 (≈ 2.84 µM)
≤ 0.1 | 1.6 (≈ 3.2 µM) | 0.4 (≈ 0.801 µM) | 0.4 (≈ 0.801 µM) | CSC(C)(C)[C@H](NC(=O)c1ccc(C#Cc2ccc(CNCC(F)(F)F)s2)cc1)C(=O)NO [Compound 309] | 0.8 (≈ 1.6 µM) | 0.8 (≈ 1.6 µM) | 1.6 (≈ 3.2 µM) | ≤ 0.1 | 0.8 (≈ 1.6 µM) | 1.6 (≈ 3.2 µM)
